In turn, `CCc1nc2ccc(Cl)cc2c2nc(-c3ccc(Cl)cc3)nn12` [Example 86, 9-chloro-2-(4-chlorophenyl)-5-ethyl-1,2,4-triazolo[1,5-c]quinazoline] showed a melting point of 213 to 214 °C.

`CCCCCCc1nc2nncc-2c2nc(-c3ccccc3)[nH]n12` [Example 88, 5-n-hexyl-2-phenylpyrazolo[4,3-e]-1,2,4-triazolo[1,5-c]pyrimidine] yielded a melting point of 207 to 208 °C.

`COC(=O)CCCc1nc2nncc-2c2nc(-c3ccc(OC)cc3)[nH]n12` [Example 90, methyl 4-[2-(4-methoxyphenyl)pyrazolo[4,3-e]-1,2,4-triazolo[1,5-c]pyrimidin-5-yl]butyrate]: the melting point is 187.5 to 188.5 °C.

As for `COC(=O)CCCc1nc2nncc-2c2nc(-c3ccc(Cl)cc3)[nH]n12` [Example 91, methyl 4-[2-(4-chlorophenyl)pyrazolo[4,3-e]-1,2,4-triazolo[1,5-c]pyrimidin-5-yl]butyrate], the melting point lay within 194.5 to 196.5 °C.

As for `COC(=O)CCCc1nc2nncc-2c2nc(-c3ccc(C)cc3)[nH]n12` [Example 92, methyl 4-[2-(4-methylphenyl)pyrazolo[4,3-e]-1,2,4-triazolo[1,5-c]pyrimidin-5-yl]butyrate], the melting point lay in the range of 196.5 to 197 °C.

`CCCCCc1nc2ccccc2c2nc(-c3ccccc3)nn12` [Example 93, 5-n-pentyl-2-phenyl-1,2,4-triazolo[1,5-c]quinazoline] returned a melting point of 118 to 118.5 °C.

`CCCCCCc1nc2ccccc2c2nc(-c3ccccc3)nn12` [Example 94, 5-n-hexyl-2-phenyl-1,2,4-triazolo[1,5-c]quinazoline] displayed a melting point of 92 to 93 °C.

For `CCCCCc1nc2ccccc2c2nc(-c3ccc(F)cc3)nn12` [Example 95, 2-(4-fluorophenyl)-5-n-pentyl-1,2,4-triazolo[1,5-c]quinazoline], the melting point is 133.5 to 134 °C.

In turn, `COC(=O)CCCc1nc2ccccc2c2nc(-c3ccccc3)nn12` [Example 96, methyl 4-(2-phenyl-1,2,4-triazolo[1,5-c]quinazolin-5-yl)butyrate] displayed a melting point of 118.5 to 119.5 °C.

As to `COC(=O)CCCc1nc2ccccc2c2nc(-c3ccc(Br)cc3)nn12` [Example 97, methyl 4-[2-(4-bromophenyl)-1,2,4-triazolo[1,5-c]quinazolin-5-yl]butyrate], the melting point lay in the range of 125 to 126 °C.

For the compound `COC(=O)CCCc1nc2ccccc2c2nc(-c3ccc(F)cc3)nn12` [Example 98, methyl 4-[2-(4-fluorophenyl)-1,2,4-triazolo[1,5-c]quinazolin-5-yl]butyrate], the melting point is 167 to 168 °C.

For `COC(=O)CCCc1nc2ccccc2c2nc(-c3ccc(Cl)cc3)nn12` [Example 99, methyl 4-[2-(4-chlorophenyl)-1,2,4-triazolo[1,5-c]quinazolin-5-yl]butyrate], the melting point lay within 128 to 129 °C.

The compound `COC(=O)CCCc1nc2ccccc2c2nc(-c3ccc(C)cc3)nn12` [Example 100, methyl 4-[2-(4-methylphenyl)-1,2,4-triazolo[1,5-c]quinazolin-5-yl]butyrate] displayed a melting point of 120.5 to 121.5 °C.

As to `CCCCCc1nc2ccccc2c2nc(-c3ccc(C)cc3)nn12` [Example 101, 2-(4-methylphenyl)-5-n-pentyl-1,2,4-triazolo[1,5-c]quinazoline], the melting point fell in the range of 129.5 to 131 °C.

In turn, `CCCCCc1nc2ccccc2c2nc(-c3ccc(Br)cc3)nn12` [Example 102, 2-(4-bromophenyl)-5-n-pentyl-1,2,4-triazolo[1,5-c]quinazoline] showed a melting point of 133 to 134 °C.

`CCCCCc1nc2ccccc2c2nc(-c3ccc(Cl)cc3)nn12` [Example 103, 2-(4-chlorophenyl)-5-n-pentyl-1,2,4-triazolo[1,5-c]quinazoline] gave a melting point of 118 to 119.5 °C.

Take `COC(=O)CCCc1nc2ccc(Cl)cc2c2nc(-c3ccc(Cl)cc3)nn12` [Example 104, methyl 4-[9-chloro-2-(4-chlorophenyl)-1,2,4-triazolo[1,5-c]quinazolin-5-yl]butyrate]: the melting point lay within 145 to 146.5 °C.

`CCCCCc1nc2ccccc2c2nc(-c3ccc(OC)cc3)nn12` [Example 105, 2-(4-methoxyphenyl)-5-n-pentyl-1,2,4-triazolo[1,5-c]quinazoline] came in with a melting point of 123 to 125 °C.

As to `CCCCCc1nc2ccccc2c2nc(-c3ccc(OCC)cc3)nn12` [Example 106, 2-(4-ethoxyphenyl)-5-n-pentyl-1,2,4-triazolo[1,5-c]quinazoline], the melting point was 116 to 117 °C.

`CCCCc1nc2c(cnn2C)c2nc(-c3ccccc3)nn12` [Example 110, 5-n-butyl-7-methyl-2-phenylpyrazolo[4,3-e]-1,2,4-triazolo[1,5-c]pyrimidine] displayed a melting point of 172 to 173 °C.

The compound `CCCCc1nc2nn(C)cc2c2nc(-c3ccccc3)nn12` [Example 111, 5-n-butyl-8-methyl-2-phenylpyrazolo[4,3-e]-1,2,4-triazolo[1,5-c]pyrimidine] showed a melting point of 184 to 185 °C.

In turn, `CCCCc1nc2c(cnn2CCC)c2nc(-c3ccccc3)nn12` [Example 112, 5-n-butyl-2-phenyl-7-n-propylpyrazolo[4,3-e]-1,2,4-triazolo[1,5-c]pyrimidine] had a melting point of 100.5 to 101.5 °C.

For `CCCCc1nc2nn(CCC)cc2c2nc(-c3ccccc3)nn12` [Example 113, 5-n-butyl-2-phenyl-8-n-propylpyrazolo[4,3-e]-1,2,4-triazolo[1,5-c]pyrimidine], the melting point fell in the range of 107 to 108 °C.

For `CCCCc1nc2c(cnn2CC)c2nc(-c3ccccc3)nn12` [Example 114, 5-n-butyl-7-ethyl-2-phenylpyrazolo[4,3-e]-1,2,4-triazolo[1,5-c]pyrimidine], the melting point is 146 to 147 °C.

`CCCCc1nc2nn(CC)cc2c2nc(-c3ccccc3)nn12` [Example 115, 5-n-butyl-8-ethyl-2-phenylpyrazolo[4,3-e]-1,2,4-triazolo[1,5-c]pyrimidine]: the melting point lay within 122.5 to 123 °C.

`CCCCc1nc2c(cnn2Cc2ccccc2)c2nc(-c3ccccc3)nn12` [Example 116, 7-benzyl-5-n-butyl-2-phenylpyrazolo[4,3-e]-1,2,4-triazolo[1,5-c]pyrimidine] returned a melting point of 108 to 109 °C.

With `CCCCc1nc2nn(Cc3ccccc3)cc2c2nc(-c3ccccc3)nn12` [Example 117, 8-benzyl-5-n-butyl-2-phenylpyrazolo[4,3-e]-1,2,4-triazolo[1,5-c]pyrimidine], the melting point lay in the range of 159 to 160 °C.

Regarding `CCCCc1nc2c(cnn2C)c2nc(-c3ccc(Cl)cc3)nn12` [Example 118, 2-(4-chlorophenyl)-5-n-butyl-7-methylpyrazolo[4,3-e]-1,2,4-triazolo[1,5-c]pyrimidine], the melting point was 147.5 to 148.5 °C.

`CCCCc1nc2nn(C)cc2c2nc(-c3ccc(Cl)cc3)nn12` [Example 119, 2-(4-chlorophenyl)-5-n-butyl-8-methylpyrazolo[4,3-e]-1,2,4-triazolo[1,5-c]pyrimidine] showed a melting point of 203.5 to 205 °C.

Consider `CCCCc1nc2c(cnn2C)c2nc(-c3ccc(C)cc3)nn12` [Example 120, 5-n-butyl-7-methyl-2-(4-methylphenyl)pyrazolo[4,3-e]-1,2,4-triazolo[1,5-c]pyrimidine], for which the melting point is 156 to 157 °C.
